Results: the supplement of paper PMC10307832

Tests used:
Assay in all cases: relative viability (nuclei count vs DMSO), 5 days (fraction); higher = more cells survive
[1] = compound: CC(C)N(CCCNC(=O)Nc1ccc(C(C)(C)C)cc1)C[C@H]1O[C@@H](n2ccc3c(N)ncnc32)[C@H](O)[C@@H]1O + CC(=O)Nc1cccc(-n2c(=O)n(C3CC3)c(=O)c3c(Nc4ccc(I)cc4F)n(C)c(=O)c(C)c32)c1 [Trametinib] (partner 0.02 µM)
Procedure, shortened: (§1)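 Each reported value is a median over duplicate plates. It expresses relative viability: treated-well nuclei count divided by vehicle-well nuclei count. Lung cancer cell lines in 1536-well plates were dosed by pin tool a day after seeding, alone with one drug or with a fixed anchor-drug dose plus five library-drug doses (not always all listed) in √10 steps, and nuclei were counted after 5 days.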

[2] = compound: CC(C)N(CCCNC(=O)Nc1ccc(C(C)(C)C)cc1)C[C@H]1O[C@@H](n2ccc3c(N)ncnc32)[C@H](O)[C@@H]1O + COc1cccc2cc(-c3nc([C@H]4CC[C@H](C(=O)O)CC4)n4ncnc(N)c34)[nH]c12 [OSI-027] (partner 0.5 µM)
Procedure, shortened: as §1

Shikonin + Olaparib = compound: CC(C)=CC[C@@H](O)C1=CC(=O)c2c(O)ccc(O)c2C1=O [Shikonin] + O=C(c1cc(Cc2n[nH]c(=O)c3ccccc23)ccc1F)N1CCN(C(=O)C2CC2)CC1 [Olaparib] (partner 8 µM)
Procedure, shortened: as §1

[3] = compound: CC(C)N(CCCNC(=O)Nc1ccc(C(C)(C)C)cc1)C[C@H]1O[C@@H](n2ccc3c(N)ncnc32)[C@H](O)[C@@H]1O + C[C@@H](Oc1cc(-c2cnn(C3CCNCC3)c2)cnc1N)c1c(Cl)ccc(F)c1Cl [Crizotinib] (partner 1 µM)
Procedure, shortened: as §1

| Cell Line | relative viability ([1]; first compound 0.08 µM) | relative viability ([1]; first compound 0.253 µM) | relative viability ([1]; first compound 0.8 µM) | relative viability ([1]; first compound 2.53 µM) | relative viability ([1]; first compound 8 µM) | relative viability ([2]; first compound 0.08 µM) | relative viability ([2]; first compound 0.253 µM) | relative viability ([2]; first compound 0.8 µM) | relative viability ([2]; first compound 2.53 µM) | relative viability ([2]; first compound 8 µM) | relative viability (Shikonin + Olaparib; first compound 0.01 µM) | relative viability (Shikonin + Olaparib; first compound 0.1 µM) | relative viability (Shikonin + Olaparib; first compound 0.3162 µM) | relative viability (Shikonin + Olaparib; first compound 1 µM) | relative viability ([3]; first compound 0.08 µM) | relative viability ([3]; first compound 0.8 µM) | relative viability ([3]; first compound 2.53 µM) | relative viability ([3]; first compound 8 µM) | relative viability ([3]; first compound 0.253 µM) |
| --- | --- | --- | --- | --- | --- | --- | --- | --- | --- | --- | --- | --- | --- | --- | --- | --- | --- | --- | --- |
| NCI-H2228 | 0.631 | 0.375 | 0.388 | 0.52 | 0.526 | 0.614 | 0.632 | 0.526 | 0.623 | 0.78 | 0.987 | 0.808 | 0.681 | 0.272 | 0.586 | 0.468 | 0.543 | 0.44 | – |
| NCI-H322M | 0.5 | 0.533 | 0.544 | 0.475 | 0.517 | 0.514 | 0.618 | 0.575 | 0.693 | 0.579 | 0.806 | 0.757 | 0.671 | 0.88 | 0.912 | 0.802 | 0.969 | 0.962 | 1.04 |
| NCI-H1975 | 0.347 | 0.29 | 0.167 | 0.308 | 0.32 | 0.729 | 0.672 | 0.403 | 0.577 | 0.598 | 0.815 | 0.836 | 0.955 | 0.715 | 0.895 | 0.879 | 0.806 | 0.839 | 0.867 |
| NCI-H1944 | 0.362 | 0.39 | 0.372 | 0.439 | 0.448 | 0.413 | 0.41 | 0.401 | 0.452 | 0.405 | 0.428 | 0.408 | 0.414 | 0.387 | 1.09 | 1.14 | 1.13 | 1.1 | 1.09 |
| LU99A | 0.509 | 0.44 | 0.519 | 0.504 | 0.508 | 0.317 | 0.327 | 0.329 | 0.377 | 0.254 | 0.256 | 0.272 | 0.233 | 0.222 | 0.661 | 0.513 | 0.524 | 0.498 | 0.571 |
| NCI-H1993 | 0.609 | – | 0.569 | 0.471 | 0.486 | 0.521 | – | – | 0.578 | 0.56 | 0.92 | 0.943 | 1.12 | 1.32 | 0.767 | 0.877 | 0.841 | 0.888 | 0.935 |
| NCI-H2405 | 0.669 | 0.591 | 0.598 | 0.765 | 0.644 | 0.626 | 0.678 | 0.684 | 0.668 | 0.592 | 0.918 | 0.952 | 0.892 | 0.868 | 0.875 | 0.782 | 0.865 | 0.856 | 0.822 |
| NCI-H2023 | 0.536 | 0.579 | 0.559 | 0.495 | 0.459 | 0.375 | 0.501 | 0.414 | 0.392 | 0.353 | 0.478 | 0.559 | 0.622 | 0.437 | 0.753 | 0.859 | 0.755 | 0.751 | 0.733 |
| HCC-15 | 0.338 | 0.363 | 0.401 | 0.362 | 0.351 | 0.641 | 0.815 | 0.6 | 0.812 | 0.655 | 0.796 | 0.735 | 0.722 | 0.669 | 0.85 | 0.819 | 0.832 | 0.776 | 0.804 |
| HCC-44 | 1.11 | 1.09 | 0.936 | 1.11 | 1.18 | 0.507 | 0.509 | 0.432 | 0.572 | 0.552 | 0.963 | 1.01 | 1.07 | 0.993 | 0.788 | 0.832 | 0.859 | 0.744 | 0.864 |
| NCI-H1299 | – | – | – | – | – | – | – | – | – | – | 0.969 | 0.986 | 0.976 | 0.832 | 0.927 | 0.946 | 0.99 | 0.9 | 0.941 |
| ABC-1 | – | – | – | – | – | 0.497 | 0.588 | – | 0.565 | 0.529 | 0.78 | 0.894 | 0.948 | 0.637 | 0.816 | – | 1.26 | 1.13 | 0.926 |
| NCI-H1793 | 0.394 | – | 0.367 | 0.446 | 0.422 | 0.27 | – | 0.228 | 0.274 | 0.291 | 1.12 | 0.995 | 1 | 0.914 | – | – | – | – | – |
| SW 900 | 0.734 | 0.78 | – | 0.766 | 0.717 | 0.482 | 0.569 | – | 0.691 | 0.512 | 1.05 | 0.776 | 0.917 | 0.717 | – | – | – | – | – |
| NCI-H1563 | – | – | – | – | – | 0.742 | 0.782 | 0.73 | 0.713 | 0.799 | – | – | – | – | 0.813 | 0.804 | 0.812 | 0.82 | 0.963 |
| A549 | – | – | – | – | – | – | – | – | – | – | 0.351 | 0.454 | 0.305 | 0.302 | 0.7 | 0.739 | 0.708 | 0.714 | 0.609 |
| NCI-H2342 | 0.781 | 0.81 | 0.692 | 0.656 | 0.826 | 0.736 | 0.643 | 0.611 | 0.61 | 0.607 | 0.43 | 0.392 | 0.38 | 0.383 | – | – | – | – | – |
| NCI-H1623 | – | – | – | – | – | 0.446 | 0.469 | 0.529 | 0.422 | 0.437 | – | – | – | – | – | – | – | – | – |
| NCI-H522 | 0.633 | 0.763 | 0.824 | 0.798 | 0.845 | 0.58 | 0.895 | 0.848 | 0.643 | 0.809 | 0.645 | 0.614 | 0.597 | 0.491 | – | – | – | – | – |
| NCI-H1395 | 0.956 | 0.986 | 0.979 | 1.01 | 1.04 | 0.67 | 0.631 | 0.57 | 0.62 | 0.719 | 0.407 | 0.455 | 0.416 | 0.427 | – | – | – | – | – |
| IA-LM | – | – | – | – | – | – | – | – | – | – | 0.993 | 0.891 | 0.893 | 0.885 | 0.868 | 0.84 | 0.939 | 0.644 | 0.747 |
| EBC-1 | – | – | – | – | – | – | – | – | – | – | 0.764 | 0.698 | 0.758 | 0.602 | 0.207 | 0.18 | 0.178 | 0.171 | 0.199 |
